ChEMBL document CHEMBL4610038, “The synthesis of trifluoromethylated N-nitroaryl-2-amino-1,3-dichloropropane derivatives and their evaluation as potential anti-cancer agents” (Bioorg Med Chem Lett, 2020)

Experiments:
[1] = Cytotoxicity against human HK1 cells assessed as reduction in cell viability; type: functional, cell-based; settings: HK-1
[2] = Cytotoxicity against human MCF10A cells assessed as cell viability at 100 uM relative to control; type: cell-based, MCF-10A; settings: read-out: Activity
SH-SY5Y [3] = assay: Cytotoxicity against human SH-SY5Y cells assessed as reduction in cell viability; type: functional, cell-based
SUNE1 [4] = assay: Cytotoxicity against human SUNE1 cells assessed as reduction in cell viability; type: functional, cell-based
SW1990 [5] = assay: Cytotoxicity against human SW1990 cells assessed as reduction in cell viability; type: functional, cell-based
T47D [6] = assay: Cytotoxicity against human T47D cells assessed as reduction in cell viability; type: functional, cell-based
[7] = Cytotoxicity against human MRC5 cells assessed as cell viability at 100 uM relative to control; type: cell-based; settings: read-out: Activity
SW48 [8] = assay: Cytotoxicity against human SW48 cells assessed as reduction in cell viability; type: functional, cell-based
MDA-MB-231 [9] = assay: Cytotoxicity against human MDA-MB-231 cells assessed as cell viability at 100 uM relative to control; type: functional; settings: read-out: Activity
HCT-116 [10] = assay: Cytotoxicity against human HCT116 cells assessed as cell viability at 100 uM relative to control; type: functional; settings: read-out: Activity
CNE [11] = assay: Cytotoxicity against human CNE1 cells assessed as cell viability at 100 uM relative to control; type: functional; settings: read-out: Activity
SW1990 [12] = assay: Cytotoxicity against human SW1990 cells assessed as cell viability at 100 uM relative to control; type: functional; settings: read-out: Activity
Caco-2 [13] = assay: Cytotoxicity against human Caco2 cells assessed as reduction in cell viability; type: functional, cell-based
Caco-2 [14] = assay: Cytotoxicity against human Caco2 cells assessed as cell viability at 100 uM relative to control; type: functional; settings: read-out: Activity
SW48 [15] = assay: Cytotoxicity against human SW48 cells assessed as cell viability at 100 uM relative to control; type: functional; settings: read-out: Activity
T47D [16] = assay: Cytotoxicity against human T47D cells assessed as cell viability at 100 uM relative to control; type: functional; settings: read-out: Activity
[17] = Cytotoxicity against human HK1 cells assessed as cell viability at 100 uM relative to control; type: functional; settings: HK-1, read-out: Activity
HCT-116 [18] = assay: Cytotoxicity against human HCT116 cells assessed as reduction in cell viability; type: functional, cell-based
NCI-H1299 [19] = assay: Cytotoxicity against human H1299 cells assessed as reduction in cell viability; type: functional, cell-based
SK-BR-3 [20] = assay: Cytotoxicity against human SKBR3 cells assessed as reduction in cell viability; type: functional, cell-based
HT-29 [21] = assay: Cytotoxicity against human HT-29 cells assessed as reduction in cell viability; type: functional, cell-based
CNE [22] = assay: Cytotoxicity against human CNE1 cells assessed as reduction in cell viability; type: functional, cell-based
MDA-MB-231 [23] = assay: Cytotoxicity against human MDA-MB-231 cells assessed as reduction in cell viability; type: functional, cell-based
MCF-10A = assay: Cytotoxicity against human MCF10A cells assessed as reduction in cell viability; type: cell-based
ASPC1 [24] = assay: Cytotoxicity against human AsPC1 cells assessed as reduction in cell viability; type: functional, cell-based
BXPC-3 [25] = assay: Cytotoxicity against human BxPC3 cells assessed as cell viability at 100 uM relative to control; type: functional; settings: read-out: Activity
MCF7 [26] = assay: Cytotoxicity against human MCF7 cells assessed as cell viability at 100 uM relative to control; type: functional; settings: read-out: Activity
HT-29 [27] = assay: Cytotoxicity against human HT-29 cells assessed as cell viability at 100 uM relative to control; type: functional; settings: read-out: Activity
A549 [28] = assay: Cytotoxicity against human A549 cells assessed as cell viability at 100 uM relative to control; type: functional; settings: read-out: Activity
BXPC-3 [29] = assay: Cytotoxicity against human BxPC3 cells assessed as reduction in cell viability; type: functional, cell-based
MCF7 [30] = assay: Cytotoxicity against human MCF7 cells assessed as reduction in cell viability; type: functional, cell-based
SK-BR-3 [31] = assay: Cytotoxicity against human SKBR3 cells assessed as cell viability at 100 uM relative to control; type: functional; settings: read-out: Activity
SH-SY5Y [32] = assay: Cytotoxicity against human SH-SY5Y cells assessed as cell viability at 100 uM relative to control; type: functional; settings: read-out: Activity
ASPC1 [33] = assay: Cytotoxicity against human AsPC1 cells assessed as cell viability at 100 uM relative to control; type: functional; settings: read-out: Activity
NCI-H1299 [34] = assay: Cytotoxicity against human H1299 cells assessed as cell viability at 100 uM relative to control; type: functional; settings: read-out: Activity
A549 [35] = assay: Cytotoxicity against human A549 cells assessed as reduction in cell viability; type: functional, cell-based
MRC5 = assay: Cytotoxicity against human MRC5 cells assessed as reduction in cell viability; type: cell-based
SUNE1 [36] = assay: Cytotoxicity against human SUNE1 cells assessed as cell viability at 100 uM relative to control; type: functional; settings: read-out: Activity
MDA-MB-468 [37] = assay: Cytotoxicity against human MDA-MB-468 cells assessed as cell viability at 100 uM relative to control; type: functional; settings: read-out: Activity
MDA-MB-468 [38] = assay: Cytotoxicity against human MDA-MB-468 cells assessed as reduction in cell viability; type: functional, cell-based

SMILES | IC50 [1] | viability at 100 µM [2] | IC50 (SH-SY5Y [3]) | IC50 (SUNE1 [4]) | IC50 (SW1990 [5]) | IC50 (T47D [6]) | viability at 100 µM [7] | IC50 (SW48 [8]) | viability at 100 µM (MDA-MB-231 [9]) | viability at 100 µM (HCT-116 [10]) | viability at 100 µM (CNE [11]) | viability at 100 µM (SW1990 [12]) | IC50 (Caco-2 [13]) | viability at 100 µM (Caco-2 [14]) | viability at 100 µM (SW48 [15]) | viability at 100 µM (T47D [16]) | viability at 100 µM [17] | IC50 (HCT-116 [18]) | IC50 (NCI-H1299 [19]) | IC50 (SK-BR-3 [20]) | other results
O=[N+]([O-])c1ccccc1NC(CO)CO | > 100 µM | 100% | > 100 µM | > 100 µM | > 100 µM | > 100 µM | 101% | > 100 µM | 91.8% | 76.9% | 102% | 91.9% | > 100 µM | 95.1% | 102% | 76.2% | 90.1% | > 100 µM | > 100 µM | > 100 µM | IC50 (HT-29 [21]): > 100 µM; IC50 (CNE [22]): > 100 µM; IC50 (MDA-MB-231 [23]): > 100 µM; IC50 (MCF-10A): > 100 µM; IC50 (ASPC1 [24]): > 100 µM; viability at 100 µM (BXPC-3 [25]): 102%; viability at 100 µM (MCF7 [26]): 66.6%; viability at 100 µM (HT-29 [27]): 86.1%; viability at 100 µM (A549 [28]): 74.9%; IC50 (BXPC-3 [29]): > 100 µM; IC50 (MCF7 [30]): > 100 µM; viability at 100 µM (SK-BR-3 [31]): 101%; viability at 100 µM (SH-SY5Y [32]): 89.7%; viability at 100 µM (ASPC1 [33]): 101%; viability at 100 µM (NCI-H1299 [34]): 96.7%; IC50 (A549 [35]): > 100 µM; IC50 (MRC5): > 100 µM; viability at 100 µM (SUNE1 [36]): 99.3%; viability at 100 µM (MDA-MB-468 [37]): 104%; IC50 (MDA-MB-468 [38]): > 100 µM
O=[N+]([O-])c1ccc(NC(CO)CO)cc1C(F)(F)F | > 100 µM | 102% | > 100 µM | > 100 µM | > 100 µM | > 100 µM | 32.8% | > 100 µM | 65.7% | 86.8% | 100% | 71.5% | > 100 µM | 96.1% | 78.9% | 71.2% | 92.8% | > 100 µM | > 100 µM | > 100 µM | IC50 (HT-29 [21]): > 100 µM; IC50 (CNE [22]): > 100 µM; IC50 (MDA-MB-231 [23]): > 100 µM; IC50 (MCF-10A): > 100 µM; IC50 (ASPC1 [24]): > 100 µM; viability at 100 µM (BXPC-3 [25]): 108%; viability at 100 µM (MCF7 [26]): 49.7%; viability at 100 µM (HT-29 [27]): 110%; viability at 100 µM (A549 [28]): 61.9%; IC50 (BXPC-3 [29]): > 100 µM; IC50 (MCF7 [30]): 88.1 µM; viability at 100 µM (SK-BR-3 [31]): 79.4%; viability at 100 µM (SH-SY5Y [32]): 70.8%; viability at 100 µM (ASPC1 [33]): 87.3%; viability at 100 µM (NCI-H1299 [34]): 72.3%; IC50 (A549 [35]): > 100 µM; IC50 (MRC5): 41 µM; viability at 100 µM (SUNE1 [36]): 104%; viability at 100 µM (MDA-MB-468 [37]): 98.7%; IC50 (MDA-MB-468 [38]): > 100 µM
O=[N+]([O-])c1cc(C(F)(F)F)ccc1NC(CO)CO | > 100 µM | 102% | > 100 µM | > 100 µM | > 100 µM | > 100 µM | 64.9% | > 100 µM | 67.3% | 83.9% | 106% | 68.5% | > 100 µM | 89.5% | 98.8% | 68.6% | 92.9% | > 100 µM | > 100 µM | > 100 µM | IC50 (HT-29 [21]): > 100 µM; IC50 (CNE [22]): > 100 µM; IC50 (MDA-MB-231 [23]): > 100 µM; IC50 (MCF-10A): > 100 µM; IC50 (ASPC1 [24]): > 100 µM; viability at 100 µM (BXPC-3 [25]): 108%; viability at 100 µM (MCF7 [26]): 57.4%; viability at 100 µM (HT-29 [27]): 95.2%; viability at 100 µM (A549 [28]): 57.9%; IC50 (BXPC-3 [29]): > 100 µM; IC50 (MCF7 [30]): > 100 µM; viability at 100 µM (SK-BR-3 [31]): 66.4%; viability at 100 µM (SH-SY5Y [32]): 84.9%; viability at 100 µM (ASPC1 [33]): 81.8%; viability at 100 µM (NCI-H1299 [34]): 91.3%; IC50 (A549 [35]): > 100 µM; IC50 (MRC5): > 100 µM; viability at 100 µM (SUNE1 [36]): 83.4%; viability at 100 µM (MDA-MB-468 [37]): 100%; IC50 (MDA-MB-468 [38]): > 100 µM
